# Key:
# [1] = Evaluation of foaming property by the inversion stirring method; assay type: physicochemical
# Procedure: Each surfactant used in Test Example 2 was evaluated for its foaming properties by the inversion stirring method. 100 mL of a PDB medium non-supplemented or supplemented with 0.5% (w/v) (final concentration) of a surfactant was added to a graduated cylindrical container of 50 mm in diameter and then inversion-stirred for 300 seconds using a flat propeller while the propeller was inverted every 6 seconds at 1000 rpm. 30 seconds after the completion of stirring, the volume of foam in the medium was measured.
# [2] = tested on: Rhizopus oryzae NBRC 4707; assay: Evaluation of ability to produce lactic acid-2, strain NBRC 4707; assay type: cell-based; settings: 0.5% (w/v) at spore germination, control of the strain without surfactant = 100
# Procedure: (1) Spore suspensions were prepared in the same way as in Production Example 1 using Rhizopus oryzae NBRC 4707, NBRC 4785, NBRC 5384 (=JCM14625), and NBRC 5418 strains obtained from a culture collection NBRC.
# (2) Mycelia were prepared from the spores of each strain under the same conditions as in Production Example 2 involving stirring at 100 rpm using 60 mL of a PDB medium non-supplemented or supplemented with 0.5% (w/v) (final concentration) of the surfactant sorbitan monolaurate (Rheodol(R) SP-L10, manufactured by Kao Corp.).
# (3) The total amount of the fungus bodies obtained in (2) was inoculated to 100 mL of an inorganic culture medium under the same conditions as in Production Example 3 to grow the mycelia. […]
# 30 g of the prepared wet fungus bodies of each strain of the genus Rhizopus was inoculated to 100 mL of an inorganic culture medium for lactic acid production evaluation (composition: 12.5% glucose, 0.1% ammonium sulfate, 0.06% potassium dihydrogen phosphate, 0.025% magnesium sulfate heptahydrate, 0.009% zinc sulfate heptahydrate, and 6.25% calcium carbonate; all the concentrations mean % (w/v)) applied to a 500-mL Erlenmeyer flask, and then cultured at 33.5° C. with stirring at 170 rpm. The production rate of lactic acid was determined by the same procedures as in Test Example 2. […]
# [3] = tested on: fungus of the genus Rhizopus; assay: Evaluation of ability to produce lactic acid by repetitive use of fungus body; assay type: cell-based; settings: 0.5% (w/v) at germination, relative to control without surfactant in the first repetition
# Procedure: Mycelia of a fungus of the genus Rhizopus were prepared in a medium non-supplemented with or containing 0.5% (w/v) (final concentration) of the surfactant sorbitan monolaurate (Rheodol(R) SP-L10) by the same procedures as in Test Example 4(2) and then cultured by the same procedures as in Test Example 4(3). The obtained fungus bodies were recovered by the same procedures as in Test Example 5(4). Subsequently, 25 g of the wet fungus bodies was cultured for 4 hours in an inorganic culture medium for lactic acid production evaluation by the same procedures as in Test Example 5. The production rate of lactic acid was determined. The same procedures of fungus body recovery and culture were repeated, and the production rate of lactic acid was determined at each run (the number of repetitions: 3). The production rate of lactic acid at each run was calculated as a relative value to the production rate of lactic acid under the control conditions (in the absence of the surfactant) in the first repetition. The concentration of lactic acid (unit: g of lactic acid/L of medium) in the supernatant sample of each culture medium was measured according to Reference Example 1 and divided by a time (unit: hr) required for change in lactic acid concentration to calculate the production rate of lactic acid per unit time (unit: g of lactic acid/L/hr). In addition, a relative value to the production rate of lactic acid under control conditions in each Production Example was determined.
# [4] = tested on: fungus of the genus Rhizopus; assay: Evaluation of ability to produce lactic acid-4 (surfactant added to the lactic acid production medium); assay type: cell-based; settings: for Production rate of lactic acid (relative value): mycelia prepared with 0.5% (w/v), non-supplemented = 100
# Procedure: Specifically, the mycelia of a fungus of the genus Rhizopus were prepared by the method of Production Example 2 using the surfactant and then grown by the method of Production Example 3. 6.0 g of the obtained wet fungus bodies of the genus Rhizopus was inoculated to 40 mL of an inorganic culture medium for lactic acid production evaluation (composition: 8.0% glucose, 0.1% ammonium sulfate, 0.06% potassium dihydrogen phosphate, 0.025% magnesium sulfate heptahydrate, 0.009% zinc sulfate heptahydrate, and 5.0% calcium carbonate; all the concentrations mean % (w/v)) applied to a 200-mL Erlenmeyer flask, and then cultured at 35° C. with stirring at 170 rpm. The supernatant of the culture medium was recovered every 2 hours from 30 minutes after the fungus body inoculation. Glucose and lactic acid were quantified by the procedures described later in Reference Example 1. A relative value of the production rate of lactic acid was determined on the basis of the calculation method described in Reference Example 2.
# Mycelia of a fungus of the genus Rhizopus were prepared in a medium containing 0.5% (w/v) (final concentration) of sorbitan monolaurate (Rheodol(R) SP-L10) by the same procedures as in Production Example 2 and then cultured by the same procedures as in Production Example 3. The fungus bodies were cultured by the sane procedures as in Test Example 2 and evaluated for its production rate of lactic acid. In this respect, the inorganic medium for lactic acid production evaluation was non-supplemented or supplemented with 0.1% (w/v), 0.2% (w/v), 0.5% (w/v), or 1% (w/v) (final concentration) of Rheodol(R) SP-L10. The amount of lactic acid was measured at 4 hours and 8.5 hours of the culture to calculate the production rate of lactic acid. The production rate of lactic acid was reduced in the medium supplemented with 0.1% (w/v) or higher of Rheodol(R) SP-L10 during lactic acid production.
# The concentration of lactic acid (unit: g of lactic acid/L of medium) in the supernatant sample of each culture medium was measured according to Reference Example 1 and divided by a time (unit: hr) required for change in lactic acid concentration to calculate the production rate of lactic acid per unit time (unit: g of lactic acid/L/hr). In addition, a relative value to the production rate of lactic acid under control conditions in each Production Example was determined.
substance,measurement,setting,value
Sorbitan monolaurate,Volume of foam relative to the volume of foam in the absence of the surfactant (in words),[1]; 0.5% (w/v) in PDB medium,twice or less
same,Volume of foam (relative value),"[1]; 0.5% (w/v) surfactant in PDB medium, 30 seconds after stirring, foam in the absence of the surfactant = 100",150 relative value
same,Production rate of lactic acid (relative value),[2],135 relative value
same,Production rate of lactic acid (relative value),[3]; repetition 1,173 relative value
same,Production rate of lactic acid (relative value),[3]; repetition 2,170 relative value
same,Production rate of lactic acid (relative value),[3]; repetition 3,167 relative value
same,Production rate of lactic acid (relative value),[4]; 0.1% w/v added to lactic acid production medium,93 relative value
same,Production rate of lactic acid (relative value),[4]; 0.2% w/v added to lactic acid production medium,67 relative value
same,Production rate of lactic acid (relative value),[4]; 0.5% w/v added to lactic acid production medium,4 relative value
same,Production rate of lactic acid (relative value),[4]; 1% w/v added to lactic acid production medium,0 relative value
same,Production rate of lactic acid (in words),[4]; medium supplemented with 0.1% (w/v) or higher during lactic acid production,reduced
